Test results published in BindingDB's records for doi:10.1016/j.ejmech.2019.01.017 (Qilu University of Technology (Shandong Academy of Sciences), 2019).

Target: RAC-beta serine/threonine-protein kinase (Homo sapiens, UniProt P31751)
Test: Inhibition of PKBbeta (unknown origin)

Sequence of RAC-beta serine/threonine-protein kinase (P31751 whole entry): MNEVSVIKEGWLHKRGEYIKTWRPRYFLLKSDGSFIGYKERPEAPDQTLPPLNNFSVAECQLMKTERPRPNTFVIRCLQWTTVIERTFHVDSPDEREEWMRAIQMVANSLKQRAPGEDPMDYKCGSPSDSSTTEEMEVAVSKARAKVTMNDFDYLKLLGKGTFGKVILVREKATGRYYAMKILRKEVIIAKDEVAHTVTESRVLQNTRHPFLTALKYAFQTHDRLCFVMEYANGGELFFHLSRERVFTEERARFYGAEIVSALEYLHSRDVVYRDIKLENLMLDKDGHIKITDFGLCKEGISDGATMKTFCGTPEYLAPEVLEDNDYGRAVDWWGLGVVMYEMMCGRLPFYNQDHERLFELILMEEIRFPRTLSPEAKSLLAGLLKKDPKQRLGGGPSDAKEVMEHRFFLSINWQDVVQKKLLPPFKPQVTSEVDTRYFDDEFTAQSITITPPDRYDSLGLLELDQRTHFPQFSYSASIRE

With `Cc1ccc2[nH]c(=O)c(C(=O)/C=C/c3nc4ccccc4[nH]3)c(-c3ccccc3)c2c1` the IC50 was 1640 nM.
